The source made the active and inactive calls.
Tests used:
[1] = luciferase reporter signal suppression in cells – H4 neuroglioma cells, luminescence, dose response (AID 1990); format: functional, cell-based
[2] = luciferase reporter signal reduction – luminescence, H4-C neuroglioblastoma cells, dose response (AID 2458); format: functional, cell-based;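 also: H4 neuroglioblastoma cells stably carrying a luciferase reporter gene fusion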
BJ [3] = test: BJ-TERT fibroblast viability loss – cell-based, RAS-independent, luminescence, dose response (AID 1933); format: functional; conditions: Homo sapiens
cells = format: functional, cell-based
[4] = Luminescence Cell-Based Dose Response HTS to Identify Inhibitors of 5'UTR Stem-Loop Driven Prion Protein mRNA Translation in H4 Neuroglioblastoma Cells. [Related pubchem assays: 1827 (Project Summary), 1813 (Primary HTS)]; format: functional
[5] = alpha-synuclein stem-loop luciferase translation blockers – H4 neuroglioma cells, luminescence, confirmation (AID 1988); format: functional, cell-based
BJ [6] = test: cells; format: functional, cell-based; conditions: Homo sapiens
BJ [7] = test: BJ-TERT-LT-ST fibroblast viability loss – cell-based, RAS-independent, luminescence, dose response (AID 1935); format: functional; conditions: Homo sapiens;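 also: BJ fibroblasts immortalized with TERT plus LT and ST oncogenes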
[8] = DRD fibroblast viability loss – cell-based, non-viral oncogenic, luminescence, dose response (AID 1934); format: functional; conditions: Homo sapiens
[9] = alpha-synuclein stem-loop translation blockers – luminescence, H4 neuroglioblastoma cells, dose confirmation, confirmation (AID 2454); format: functional, cell-based;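 also: H4 neuroglioblastoma cells carrying an alpha-synuclein 5'UTR luciferase reporter; potency for inhibition of the luciferase signal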
[10] = HEK-293T viability loss after treatment – luminescence, T-cell screen hits, cytotoxicity control for TCR NF-kB inhibitor project, dose response (AID 489026); format: functional, cell-based;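 also: cells exposed to compound about 14 hours before the viability readout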
Paired box protein Pax-8 = Paired box protein Pax-8 (Homo sapiens, UniProt Q06710); test: PAX8 transcriptional activity inhibition in RMG-I – RMG-I cells, luciferase, cherry-pick, dose response (AID 687027); format: functional, cell-based;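 also: luciferase reporter driven by Pax8 target thyroperoxidase promoter measured by SteadyGlo luminescence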
Chain of Paired box protein Pax-8 (Q06710 whole entry): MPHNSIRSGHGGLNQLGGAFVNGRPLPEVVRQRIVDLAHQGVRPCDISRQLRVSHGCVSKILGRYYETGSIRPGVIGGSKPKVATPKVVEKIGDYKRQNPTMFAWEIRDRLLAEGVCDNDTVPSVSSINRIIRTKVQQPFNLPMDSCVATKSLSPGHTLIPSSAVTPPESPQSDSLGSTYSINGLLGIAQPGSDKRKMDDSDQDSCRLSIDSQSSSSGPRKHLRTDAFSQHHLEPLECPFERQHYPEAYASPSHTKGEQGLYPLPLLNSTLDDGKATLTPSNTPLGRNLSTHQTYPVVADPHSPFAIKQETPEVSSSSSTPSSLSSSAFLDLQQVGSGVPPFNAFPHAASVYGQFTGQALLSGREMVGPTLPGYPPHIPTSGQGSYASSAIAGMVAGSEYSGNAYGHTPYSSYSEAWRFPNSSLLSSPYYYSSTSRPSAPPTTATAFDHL

[11] = target: Sphingosine 1-phosphate receptor 2 (Homo sapiens, UniProt O95136); test: Dose Response Cell Based Assay for Agonists of the S1P2 Receptor of Purchased Analogues. [Related pubchem assays: 729, 843, 854, 736 ]; format: functional
Chain of Sphingosine 1-phosphate receptor 2 (O95136 whole entry): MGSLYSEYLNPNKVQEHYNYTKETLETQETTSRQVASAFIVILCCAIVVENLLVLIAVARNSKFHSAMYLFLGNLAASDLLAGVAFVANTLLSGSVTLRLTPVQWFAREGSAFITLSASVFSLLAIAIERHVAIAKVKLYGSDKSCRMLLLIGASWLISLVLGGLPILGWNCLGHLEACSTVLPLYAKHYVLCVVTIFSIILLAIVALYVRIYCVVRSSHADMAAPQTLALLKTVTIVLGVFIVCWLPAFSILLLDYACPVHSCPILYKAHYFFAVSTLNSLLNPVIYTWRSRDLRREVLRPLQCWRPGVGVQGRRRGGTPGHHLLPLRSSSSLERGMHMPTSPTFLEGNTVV

[12] = target: T1, Neuropeptide Y receptor type 1 (Homo sapiens, UniProt P25929); format: functional;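 also: HEK293 cells with a CNG channel challenged with NPY then isoproterenol; potency as antagonist that reverses NPY suppression of cAMP signal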
T1 sequence (P25929 whole entry): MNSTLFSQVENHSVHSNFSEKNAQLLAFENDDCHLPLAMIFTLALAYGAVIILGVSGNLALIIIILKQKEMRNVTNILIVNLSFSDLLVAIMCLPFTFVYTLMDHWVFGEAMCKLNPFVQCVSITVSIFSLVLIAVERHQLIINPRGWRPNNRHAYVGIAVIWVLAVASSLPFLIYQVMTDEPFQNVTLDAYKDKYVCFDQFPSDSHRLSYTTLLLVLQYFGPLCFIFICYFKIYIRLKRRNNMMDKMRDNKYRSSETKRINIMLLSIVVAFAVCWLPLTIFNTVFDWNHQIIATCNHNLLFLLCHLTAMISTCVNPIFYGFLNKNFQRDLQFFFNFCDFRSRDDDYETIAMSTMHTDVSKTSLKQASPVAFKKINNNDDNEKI

[13] = target: T2, Neuropeptide Y receptor type 2 (Homo sapiens, UniProt P49146); format: functional, cell-based;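 also: HEK293 cells expressing the receptor and a CNG channel; stimulus was NPY near EC95 followed by isoproterenol to raise cAMP; antagonist potency measured as restoring cAMP signal that NPY suppresses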
T2 sequence (P49146 whole entry): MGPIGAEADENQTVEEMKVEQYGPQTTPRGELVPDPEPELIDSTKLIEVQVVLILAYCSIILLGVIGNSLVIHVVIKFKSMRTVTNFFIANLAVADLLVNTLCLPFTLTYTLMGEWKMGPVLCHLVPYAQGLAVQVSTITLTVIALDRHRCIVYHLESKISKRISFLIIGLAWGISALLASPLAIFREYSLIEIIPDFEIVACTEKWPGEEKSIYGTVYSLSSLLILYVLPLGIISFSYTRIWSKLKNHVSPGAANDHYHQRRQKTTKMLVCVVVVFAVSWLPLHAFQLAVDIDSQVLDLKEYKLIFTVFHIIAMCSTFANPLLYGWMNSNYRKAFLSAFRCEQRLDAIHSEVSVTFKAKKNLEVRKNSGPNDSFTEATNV

[14] = target: T2, Neuropeptide Y receptor type 2; test: IC50 for human NPY-Y2 blockade – cell-based, counter-screen for NPY-Y1 antagonist project, dose response (AID 1278); format: functional
[15] = target: T1, Neuropeptide Y receptor type 1; test: IC50 of human NPY-Y1 blockers – cell-based, dose response (AID 1277); format: functional
[16] = mitochondrial function rescue without frataxin homolog – Friedreich's ataxia, plus single-dose screen, dose response (AID 1465); format: functional;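 also: yeast depleted of Yfh1p frataxin homolog grown on glycerol needing respiration; WST-1 tetrazolium dye reduction as measure of cellular dehydrogenase metabolic activity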
Vero = test: mammalian cell viability reduction – secondary assay, cytotoxicity control for West Nile virus antiviral project, dose response (AID 1650); format: functional; conditions: Chlorocebus sabaeus
INS1 = test: INS-1E survival protection against cytokine death – cell-based, luminescence, retest, dose response (AID 449756); format: functional; conditions: Rattus norvegicus;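 also: cell death triggered by IL-1 beta plus TNF-alpha plus IFN-gamma mixture; protective hits raise ATP signal compared with cytokine alone wells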
[17] = target: Aryl hydrocarbon receptor (Homo sapiens, UniProt P35869); test: Luminescence-based cell-based high throughput dose response assay for activators of the Aryl Hydrocarbon Receptor (AHR). [Related pubchem assays: 2796 (Primary screen (AHR activators in singlicate)), 2845 (Confirmation screen (AHR activators in triplicate)), 434939 (Counterscreen (PXR activators in triplicate)), 2804 (Summary (AHR activators))]; format: ADME
Chain of Aryl hydrocarbon receptor (P35869 whole entry): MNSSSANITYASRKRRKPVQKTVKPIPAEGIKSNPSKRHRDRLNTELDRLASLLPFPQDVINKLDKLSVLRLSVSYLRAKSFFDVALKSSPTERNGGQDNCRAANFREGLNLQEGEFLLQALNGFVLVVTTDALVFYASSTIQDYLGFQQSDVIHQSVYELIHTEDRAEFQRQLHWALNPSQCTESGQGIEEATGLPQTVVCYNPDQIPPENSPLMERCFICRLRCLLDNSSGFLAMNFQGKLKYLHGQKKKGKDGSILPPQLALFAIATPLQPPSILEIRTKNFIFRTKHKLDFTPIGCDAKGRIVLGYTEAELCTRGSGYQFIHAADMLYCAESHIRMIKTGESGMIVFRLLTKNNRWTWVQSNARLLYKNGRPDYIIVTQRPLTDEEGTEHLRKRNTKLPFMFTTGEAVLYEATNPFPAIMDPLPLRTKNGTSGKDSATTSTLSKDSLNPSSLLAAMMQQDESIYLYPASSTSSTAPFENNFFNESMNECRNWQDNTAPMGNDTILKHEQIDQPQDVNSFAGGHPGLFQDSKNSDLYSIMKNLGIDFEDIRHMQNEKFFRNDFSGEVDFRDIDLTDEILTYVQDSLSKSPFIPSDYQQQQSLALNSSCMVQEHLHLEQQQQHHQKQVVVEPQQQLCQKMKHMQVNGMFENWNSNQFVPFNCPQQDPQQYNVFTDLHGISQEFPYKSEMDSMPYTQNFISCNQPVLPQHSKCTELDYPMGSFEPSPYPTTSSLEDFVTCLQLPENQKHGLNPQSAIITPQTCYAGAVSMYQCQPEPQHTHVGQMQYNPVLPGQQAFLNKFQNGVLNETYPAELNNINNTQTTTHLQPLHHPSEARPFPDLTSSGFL

NADPH oxidase 1 = NADPH oxidase 1 (Homo sapiens, UniProt Q9Y5S8); test: Late-stage luminescence-based cell-based dose response assay to identify inhibitors of NADPH oxidase 1 (NOX1): Synthesized analogs 2.; format: functional
Chain of NADPH oxidase 1 (Q9Y5S8 whole entry): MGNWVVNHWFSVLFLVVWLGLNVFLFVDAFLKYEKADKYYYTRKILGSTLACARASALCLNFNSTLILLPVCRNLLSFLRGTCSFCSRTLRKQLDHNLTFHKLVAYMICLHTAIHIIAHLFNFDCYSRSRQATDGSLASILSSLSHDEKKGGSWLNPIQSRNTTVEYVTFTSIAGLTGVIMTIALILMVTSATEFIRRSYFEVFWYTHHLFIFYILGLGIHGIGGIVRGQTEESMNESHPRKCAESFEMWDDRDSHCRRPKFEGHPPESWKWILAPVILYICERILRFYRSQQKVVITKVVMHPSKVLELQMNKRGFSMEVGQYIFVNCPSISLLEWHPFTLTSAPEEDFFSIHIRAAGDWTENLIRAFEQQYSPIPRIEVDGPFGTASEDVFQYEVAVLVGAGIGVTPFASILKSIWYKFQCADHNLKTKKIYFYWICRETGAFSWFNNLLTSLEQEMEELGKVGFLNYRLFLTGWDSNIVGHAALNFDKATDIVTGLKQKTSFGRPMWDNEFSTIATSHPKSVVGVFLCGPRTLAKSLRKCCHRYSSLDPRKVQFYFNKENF

Oxytocin receptor = Oxytocin receptor (Homo sapiens, UniProt P30559); test: Counterscreen for vasopressin 1 receptor (V1R) agonists: Fluorescence-based cell-based high throughput dose response assay for agonists of the Oxytocin Receptor (OXTR). [Related pubchem assays: 2435 (Primary screen (OXTR agonists in singlicate)), 434964 (Confirmation screen (V1R agonists in triplicate)), 434969 (Counterscreen (OXTR agonists in …; format: functional
Chain of Oxytocin receptor (P30559 whole entry): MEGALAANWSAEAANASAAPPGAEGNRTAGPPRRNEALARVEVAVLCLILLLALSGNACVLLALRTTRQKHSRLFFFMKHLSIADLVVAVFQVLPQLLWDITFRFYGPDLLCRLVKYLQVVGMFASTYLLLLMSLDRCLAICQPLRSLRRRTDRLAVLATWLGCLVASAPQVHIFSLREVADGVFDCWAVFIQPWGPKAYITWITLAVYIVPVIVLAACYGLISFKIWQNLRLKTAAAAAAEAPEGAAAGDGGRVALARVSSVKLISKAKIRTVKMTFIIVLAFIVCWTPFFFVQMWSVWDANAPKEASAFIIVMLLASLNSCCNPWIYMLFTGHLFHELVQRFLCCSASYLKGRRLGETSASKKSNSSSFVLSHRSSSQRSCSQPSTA

Vasopressin V1a receptor = Vasopressin V1a receptor (Homo sapiens, UniProt P37288); test: Fluorescence-based cell-based high throughput dose response screening assay for agonists of the vasopressin 1 receptor (V1R).; format: functional
Chain of Vasopressin V1a receptor (P37288 whole entry): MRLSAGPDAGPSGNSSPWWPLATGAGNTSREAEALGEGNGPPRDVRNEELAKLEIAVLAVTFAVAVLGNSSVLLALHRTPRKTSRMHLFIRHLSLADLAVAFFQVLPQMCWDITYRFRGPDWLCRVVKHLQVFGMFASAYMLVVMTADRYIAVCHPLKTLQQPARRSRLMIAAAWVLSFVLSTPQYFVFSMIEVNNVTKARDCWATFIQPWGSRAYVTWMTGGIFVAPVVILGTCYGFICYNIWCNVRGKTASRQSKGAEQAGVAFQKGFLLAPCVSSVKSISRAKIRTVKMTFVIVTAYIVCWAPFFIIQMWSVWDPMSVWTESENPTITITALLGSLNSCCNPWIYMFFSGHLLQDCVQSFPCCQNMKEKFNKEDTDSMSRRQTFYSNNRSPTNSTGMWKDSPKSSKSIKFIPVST

[18] = Luminescence Cell-Based Dose Retest to Confirm Inhibitors of Cancer Stem Cells. [Related pubchem assays (depositor defined):AID2717, AID2721]; format: functional; conditions: Homo sapiens
[19] = Counterscreen for IDE inhibitors: Luminescence-based cell-based high throughput dose response assay to identify compounds that are cytotoxic to HEK cells. [Related pubchem assays: 434962 (Primary screen (IDE inhibitors in singlicate)), 449730 (Counterscreen (Cytotoxicity in triplicate)), 435028 (Confirmation (IDE inhibitors in triplicate)) …; format: functional; conditions: HEK293
Insulin-degrading enzyme = target: T3, Insulin-degrading enzyme (Homo sapiens, UniProt P14735); test: Dose Response: Fluorescence polarization-based cell-based high throughput dose response assay for inhibitors of insulin-degrading enzyme (IDE). [Related pubchem assays: 434962 (Primary screen (IDE inhibitors in singlicate)), 449730 (Counterscreen (Cytotoxicity in triplicate)), 435028 (Confirmation (IDE inhibitors in triplicate)), 434984 (Summary …; format: functional
T3 sequence (P14735 whole entry): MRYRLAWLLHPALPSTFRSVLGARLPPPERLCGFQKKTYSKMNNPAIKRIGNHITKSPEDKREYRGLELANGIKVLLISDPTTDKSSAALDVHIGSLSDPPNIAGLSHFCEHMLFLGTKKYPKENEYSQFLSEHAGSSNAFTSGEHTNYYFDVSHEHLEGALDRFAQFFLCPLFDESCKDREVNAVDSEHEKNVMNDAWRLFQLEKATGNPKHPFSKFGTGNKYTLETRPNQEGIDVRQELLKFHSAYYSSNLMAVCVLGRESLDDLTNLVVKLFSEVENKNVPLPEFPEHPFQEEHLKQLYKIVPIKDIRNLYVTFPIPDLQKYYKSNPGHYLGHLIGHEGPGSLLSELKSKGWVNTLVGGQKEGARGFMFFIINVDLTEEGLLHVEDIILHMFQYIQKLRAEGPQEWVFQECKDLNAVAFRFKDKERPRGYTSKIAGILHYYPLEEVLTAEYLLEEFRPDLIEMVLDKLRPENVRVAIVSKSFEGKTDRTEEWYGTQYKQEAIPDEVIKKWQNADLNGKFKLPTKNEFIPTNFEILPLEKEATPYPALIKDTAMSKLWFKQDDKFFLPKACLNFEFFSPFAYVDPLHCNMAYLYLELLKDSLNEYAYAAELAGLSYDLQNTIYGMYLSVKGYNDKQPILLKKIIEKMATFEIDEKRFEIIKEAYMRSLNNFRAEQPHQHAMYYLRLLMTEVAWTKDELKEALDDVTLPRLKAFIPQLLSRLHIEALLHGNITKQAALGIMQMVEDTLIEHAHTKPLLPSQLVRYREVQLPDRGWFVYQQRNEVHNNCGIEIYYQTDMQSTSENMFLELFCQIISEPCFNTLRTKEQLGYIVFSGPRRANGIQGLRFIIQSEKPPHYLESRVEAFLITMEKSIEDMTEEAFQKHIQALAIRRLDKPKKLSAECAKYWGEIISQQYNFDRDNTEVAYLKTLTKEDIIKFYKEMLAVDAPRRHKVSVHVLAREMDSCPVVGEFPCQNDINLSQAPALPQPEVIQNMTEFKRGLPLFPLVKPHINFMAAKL

[20] = target: Peroxisome proliferator-activated receptor gamma/Nuclear receptor coactivator 2 (Homo sapiens, UniProt P37231); format: functional;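 also: agonist potency for raising coactivator recruitment to the receptor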
[21] = target: Peroxisome proliferator-activated receptor gamma/Nuclear receptor coactivator 1 (Homo sapiens, UniProt P37231); format: functional;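 also: agonist potency as compounds enhance coactivator SRC-1 recruitment to PPARgamma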
[22] = target: Peroxisome proliferator-activated receptor gamma/Nuclear receptor coactivator 3 (Homo sapiens, UniProt P37231); format: functional;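 also: agonist potency for raising coactivator recruitment to the receptor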
[23] = target: Peroxisome proliferator-activated receptor gamma/Nuclear receptor corepressor 2 (Homo sapiens, UniProt P37231+Q9Y618); test: Counterscreen for NR2E3 inverse agonists: TR-FRET-based biochemical high throughput dose response assay to identify inverse agonists of the interaction between peroxisome proliferator-activated receptor gamma (PPARg) and nuclear receptor co-repressor 2 (NCOR2).; format: functional
[24] = target: Photoreceptor-specific nuclear receptor (Homo sapiens, UniProt Q9Y5X4); test: ligands suppressing NR2E3 nuclear receptor activity – biochemical, TR-FRET, dose response (AID 463256); format: functional
Chain of Photoreceptor-specific nuclear receptor (Q9Y5X4 whole entry): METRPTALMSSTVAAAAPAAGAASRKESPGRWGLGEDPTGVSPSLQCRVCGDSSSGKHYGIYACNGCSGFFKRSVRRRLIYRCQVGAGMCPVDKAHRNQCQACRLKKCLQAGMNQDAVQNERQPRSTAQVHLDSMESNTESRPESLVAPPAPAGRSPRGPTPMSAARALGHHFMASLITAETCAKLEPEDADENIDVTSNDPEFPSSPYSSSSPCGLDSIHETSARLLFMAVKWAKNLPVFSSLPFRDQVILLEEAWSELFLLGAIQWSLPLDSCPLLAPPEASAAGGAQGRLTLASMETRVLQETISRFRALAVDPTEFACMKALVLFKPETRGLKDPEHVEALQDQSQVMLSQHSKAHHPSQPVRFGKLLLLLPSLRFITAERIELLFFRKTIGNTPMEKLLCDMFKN

[25] = system: Streptococcus sp. 'group A'; test: Streptococcus pyogenes SK(-)GAS viability under kanamycin – luminescence, BacTiterGlo, confirmation, counter-screen for streptokinase expression inhibitor project, dose response (AID 1900); format: functional, organism-based
Streptococcus [26] = test: Luminescence Microorganism-Based Dose Response Follow up to Identify Compounds Cytotoxic to Streptococcus. [Related pubchem assays: 1677 (Project Summary), 1915, 1914, 1902 (Retest at Dose), 1900 (Counter Screen), 1662 (Primary HTS)]; format: functional, organism-based
Streptokinase A = target: T4, Streptokinase A (Streptococcus pyogenes serotype M1, UniProt P10520); test: viability-normalized secreted streptokinase activity reduction – plasminogen activation absorbance, OD405, dose response (AID 1914); format: functional, Streptococcus pyogenes M1 GAS;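 also: secreted streptokinase activity via plasminogen activation per viability signal from cell pellet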
T4 sequence (P10520 whole entry): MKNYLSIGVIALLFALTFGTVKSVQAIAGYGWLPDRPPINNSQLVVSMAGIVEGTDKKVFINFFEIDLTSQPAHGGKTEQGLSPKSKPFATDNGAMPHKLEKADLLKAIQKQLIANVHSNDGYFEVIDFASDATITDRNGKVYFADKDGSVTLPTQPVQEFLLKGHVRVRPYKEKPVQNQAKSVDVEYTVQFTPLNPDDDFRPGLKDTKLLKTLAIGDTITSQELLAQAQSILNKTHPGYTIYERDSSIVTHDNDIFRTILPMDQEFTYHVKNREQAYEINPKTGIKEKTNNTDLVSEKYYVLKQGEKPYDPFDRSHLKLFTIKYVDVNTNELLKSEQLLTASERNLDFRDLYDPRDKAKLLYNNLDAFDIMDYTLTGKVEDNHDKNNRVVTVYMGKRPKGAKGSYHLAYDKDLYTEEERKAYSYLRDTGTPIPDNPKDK

Streptococcus [27] = test: GAS UMAA2166 growth inhibition – luminescence, BacTiterGlo, counter-screen for streptokinase expression inhibitor project, dose response (AID 1915); format: functional, organism-based;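 also: potency for reduction of bacterial viability or growth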

COc1cc2c(c(OC)c1OC)-c1ccc(O)cc1[C@@H](NC(C)=O)CC2 [N-ACETYLCOLCHINOL]
EC50 [1]: < 0.1 µM (active)
EC50 [2]: 0.088 µM (active)
EC50 (BJ [3]): 0.193 µM (active)
EC50 (cells): 0.1 µM (active)
EC50 [4]: < 0.1 µM (active)
EC50 [5]: < 0.1 µM (active)
EC50 (BJ [6]): 0.345 µM (inconclusive)
EC50 (BJ [7]): 0.146 µM (inconclusive)
EC50 [8]: 0.201 µM (active)
EC50 [9]: 0.072 µM (active)
IC50 [10]: > 80 µM (inactive)
AC50 (Paired box protein Pax-8): 0.37 µM (active)

Cc1cc(C(=O)CN(C)CC(=O)N2CCCC2)c(C)n1Cc1ccccc1
EC50 [11]: > 30 µM (not active)

COC(=O)c1ccccc1NC(=O)Cn1c(-c2nonc2N)nc2ccccc21
IC50 [12]: 4.83 µM (active)
IC50 [13]: 15 µM (not active)
IC50 [10]: > 80 µM (inactive)

CCOC(=O)C(/C=N/c1cc(C)nn1-c1ccc(Cl)cc1)=C(\O)OCC
IC50 [14]: 30.6 µM (not active)
IC50 [15]: 18.9 µM (not active)

CCOC(=O)/C(=C\C=C1/Sc2ccccc2N1CC)C(C)=O
EC50 [16]: > 100 µM (active)

CC1=NN(c2nc(-c3ccc(C)cc3)cs2)C(=O)C1N=Nc1ccc(C(N)=O)cc1 (configuration not stated)
CC50 (Vero): 6.04 µM (active)
AC50 (INS1): 2.53 µM (active)

O=C(Nc1cccc(-c2nc3cc(Cl)ccc3o2)c1)C1CCCO1 (configuration not stated)
EC50 [17]: 2.58 µM (active)

CN1c2ccc(N=[N+]=[N-])cc2Sc2cc(N=[N+]=[N-])ccc21
IC50 (NADPH oxidase 1): 7.05 µM (active)

CCc1ccc(N=Nc2ccc(O)c3[nH]cnc23)cc1
EC50 (Oxytocin receptor): > 29.9 µM (not active)
EC50 (Vasopressin V1a receptor): > 29.9 µM (not active)
AC50 [18]: 0.996 µM (active)

CCOc1ccc(N2C(=O)S/C(=C\c3ccc(O)c(OC)c3)C2=O)cc1
IC50 [19]: > 55.7 µM (not active)
IC50 (Insulin-degrading enzyme): 29.8 µM (not active)

Cc1cccc(NC(=O)c2sc3nc(-c4ccc(F)cc4)cn3c2C)n1
EC50 [20]: 12.3 µM (not active)
EC50 [21]: 16.8 µM (not active)
EC50 [22]: 22.5 µM (not active)
IC50 [23]: 1.18 µM (active)
IC50 [24]: 1.17 µM (active)

Cn1c(=O)c2c(nc(SCc3ccccc3)n2Cc2ccc(Cl)cc2)n(C)c1=O
EC50 [25]: 7.96 µM (active)
EC50 (Streptococcus [26]): > 500 µM (not active)
EC50 (Streptokinase A): 10.7 µM (active)
EC50 (Streptococcus [27]): > 150 µM (not active)

— ChEMBL document CHEMBL1201862, “PubChem BioAssay data set” (2004)
